The assay has as its target T1, EGFR (ErbB1) L858R (Homo sapiens, UniProt P00533, L858R).
T1 construct: purchased Thermo Fisher Scientific (Life Technologies) SelectScreen
Briefly: SelectScreen Z'LYTE. It counts as biochemical. A digest of the protocol:
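SelectScreen broad panel; activity (Z'LYTE, Adapta) plus binding formats. ATP: Km app for CSF1R Z'LYTE; 10 for CAMK1 Adapta. Readout = % per kinase.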

Usually inhibition stands for the change of the read-out against control, counted positive when it falls.

T1 sequence (P00533 25-1210 L858R): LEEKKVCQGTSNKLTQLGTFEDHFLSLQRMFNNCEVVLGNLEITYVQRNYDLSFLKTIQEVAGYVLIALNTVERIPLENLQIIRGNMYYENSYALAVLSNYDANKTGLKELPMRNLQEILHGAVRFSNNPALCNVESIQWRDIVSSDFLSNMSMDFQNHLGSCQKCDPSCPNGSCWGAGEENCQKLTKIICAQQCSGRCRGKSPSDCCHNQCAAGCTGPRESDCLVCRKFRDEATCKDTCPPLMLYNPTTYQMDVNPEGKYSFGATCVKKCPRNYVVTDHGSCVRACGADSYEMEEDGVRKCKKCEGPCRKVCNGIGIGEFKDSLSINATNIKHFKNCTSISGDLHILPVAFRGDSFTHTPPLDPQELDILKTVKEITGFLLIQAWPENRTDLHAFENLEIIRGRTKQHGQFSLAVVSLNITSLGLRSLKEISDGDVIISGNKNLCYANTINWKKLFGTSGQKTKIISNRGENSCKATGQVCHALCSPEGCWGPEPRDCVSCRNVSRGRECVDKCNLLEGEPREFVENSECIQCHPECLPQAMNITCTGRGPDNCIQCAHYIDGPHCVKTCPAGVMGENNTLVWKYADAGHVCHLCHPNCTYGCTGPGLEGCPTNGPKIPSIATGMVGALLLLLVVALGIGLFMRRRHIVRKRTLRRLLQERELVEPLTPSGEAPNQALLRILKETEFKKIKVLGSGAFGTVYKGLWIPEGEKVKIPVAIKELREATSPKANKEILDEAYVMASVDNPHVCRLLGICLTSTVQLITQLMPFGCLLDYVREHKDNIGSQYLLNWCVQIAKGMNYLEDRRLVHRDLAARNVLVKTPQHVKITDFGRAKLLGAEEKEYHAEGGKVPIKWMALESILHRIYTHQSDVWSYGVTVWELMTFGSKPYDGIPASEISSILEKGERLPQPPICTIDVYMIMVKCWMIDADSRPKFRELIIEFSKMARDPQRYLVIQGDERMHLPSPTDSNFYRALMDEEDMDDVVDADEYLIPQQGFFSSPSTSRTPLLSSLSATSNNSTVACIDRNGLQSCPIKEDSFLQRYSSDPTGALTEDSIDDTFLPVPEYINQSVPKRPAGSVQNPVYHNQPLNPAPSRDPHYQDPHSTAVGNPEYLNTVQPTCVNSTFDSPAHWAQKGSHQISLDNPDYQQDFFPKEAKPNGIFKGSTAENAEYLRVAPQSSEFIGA

In the case of `CN(C(=O)CN1CCOCC1)c1ccc2sc3c(-c4cccc5c(=O)cc(N6CC7CCC(C6)O7)oc45)cccc3c2c1` [NU5455], the inhibition at 1 µM was -15%.

(Values after publication PMC6934184, “Selective DNA-PKcs inhibition extends the therapeutic index of localized radiotherapy and chemotherapy” (The Journal of Clinical Investigation, 2019).)
